Measurements published in ChEMBL document CHEMBL5357021, “Novel Triazolopyridine-Based BRD4 Inhibitors as Potent HIV-1 Latency Reversing Agents” (ACS Med Chem Lett, 2024).
Active and inactive are the calls of the source. The rule behind the calls is not given here.

Assays:
[1] = target: Bromodomain-containing protein 4 (Homo sapiens) (UniProt O60885); experiment: Inhibition of BRD4 BD1 domain (unknown origin) at 1 uM by HTRF assay
[2] = tested on: Human immunodeficiency virus 1; experiment: Reversal of HIV-1 latency in ACH-2 cell line contains complete HIV-1 provirus assessed as reactivation by measuring HIV-1 p24 antigen expression 5 uM measured after 48 hrs by ELISA; assay type: functional, organism-based
[3] = tested on: Human immunodeficiency virus 1; experiment: Reversal of HIV-1 latency in CD4+ T-lymphoid J-Lat cells contains HIV-1 long terminal repeats (LTR)-Tat-GFP assessed as reactivation measured after 48 hrs by flow cytometry; assay type: functional, organism-based; details: Human immunodeficiency virus 1, J-Lat 10.6, 48 h
[4] = target: Bromodomain-containing protein 4 (Homo sapiens) (UniProt O60885); experiment: Inhibition of BRD4 BD2 domain (unknown origin) at 1 uM by HTRF assay
[5] = Cytotoxicity against human non-infected J-Lat A10.6 cells assessed as cell death by CCK8 assay; assay type: toxicity, cell-based, J-Lat 10.6
[6] = tested on: PBMC; experiment: Immune hyper-activation in human PBMC cells assessed as HLA-DR expression at 1 uM measured after 48 hrs by flow cytometry; assay type: toxicity, cell-based
[7] = target: Bromodomain-containing protein 4 (Homo sapiens) (UniProt O60885); experiment: Inhibition of BRD4 phosphorylation in human J-Lat A10.6 cells contains HIV-1 long terminal repeats (LTR)-Tat-GFP at 1 uM measured after 24 hrs by Western blotting analysis; assay type: cell-based; details: J-Lat 10.6
[8] = target: Bromodomain-containing protein 4 (Homo sapiens) (UniProt O60885); experiment: Inhibition of BRD4 in human J-Lat 10.6 cells contains HIV-1 long terminal repeats (LTR)-Tat-GFP assessed as increased CDK9 enrichment in LTR at 1 uM incubated for 6 hrs by ChiP assay; assay type: cell-based
[9] = tested on: PBMC; experiment: Immune hyper-activation in human PBMC cells assessed as CD69 expression at 1 uM measured after 48 hrs by flow cytometry; assay type: toxicity, cell-based
[10] = tested on: PBMC; experiment: Immune hyper-activation in human PBMC cells assessed as CD25 expression at 1 uM measured after 48 hrs by flow cytometry; assay type: toxicity, cell-based
[11] = target: Bromodomain-containing protein 4 (Homo sapiens) (UniProt O60885); experiment: Inhibition of BRD4 in human J-Lat 10.6 cells contains HIV-1 long terminal repeats (LTR)-Tat-GFP assessed as increased RNA pol II enrichment in LTR at 1 uM incubated for 6 hrs by ChiP assay; assay type: cell-based
[12] = tested on: Human immunodeficiency virus 1; experiment: Anti-HIV activity against HIV-1IIIB acute infected in human C8166 cells assessed as inhibition of p24 expression at 50 nM incubated for 72 hrs by ELISA assay in presence of N-(4-(2,4-difluorophenoxy)-3-(3-methyl-[1,2,4]triazolo[4,3-a]pyridin-6-yl)phenyl)-4-fluorobenzenesulfonamide; assay type: functional, organism-based
[13] = tested on: Human immunodeficiency virus 1; experiment: Anti-HIV activity against HIV-1IIIB acute infected in human C8166 cells assessed as inhibition of p24 expression at 25 nM incubated for 72 hrs by ELISA assay in presence of N-(4-(2,4-difluorophenoxy)-3-(3-methyl-[1,2,4]triazolo[4,3-a]pyridin-6-yl)phenyl)-4-fluorobenzenesulfonamide; assay type: functional, organism-based
[14] = tested on: C8166; experiment: Anti-HIV activity against HIV-1IIIB acute infected in human C8166 cells assessed as inhibition of p24 expression at 1 nM incubated for 72 hrs by ELISA assay in presence of N-(4-(2,4-difluorophenoxy)-3-(3-methyl-[1,2,4]triazolo[4,3-a]pyridin-6-yl)phenyl)-4-fluorobenzenesulfonamide; assay type: functional, cell-based

| Structure (SMILES) | inhibition [1] | EC50 [3] | inhibition [4] | CC50 [5] | other results |
| --- | --- | --- | --- | --- | --- |
| Cc1nnc2ccc(-c3cc(NS(=O)(=O)C4CC4)ccc3Oc3ccc(F)cc3F)cn12 | Active | 4.3 µM | Active | > 50 µM | Activity [2]: Active |
| COc1ccc(Br)cc1S(=O)(=O)Nc1ccc(Oc2ccc(F)cc2F)c(-c2ccc3nnc(C)n3c2)c1 | – | > 50 µM | – | > 50 µM | – |
| Cn1cc(-c2cc(NS(=O)(=O)c3ccc(F)cc3)ccc2Oc2ccc(Cl)cc2F)c2cc[nH]c2c1=O | Active | – | Active | – | – |
| COC(=O)CCCCCCC(=O)Nc1ccc(Oc2ccc(Cl)cc2F)c(-c2ccc3nnc(C)n3c2)c1 | – | > 50 µM | – | > 50 µM | – |
| COc1ccc(S(=O)(=O)Nc2ccc(Oc3ccc(F)cc3F)c(-c3ccc4nnc(C)n4c3)c2)cc1 | Active | 6.8 µM | Active | > 50 µM | – |
| CCS(=O)(=O)Nc1ccc(Oc2ccc(Cl)cc2F)c(-c2ccc3nnc(C)n3c2)c1 | Active | 5.6 µM | Active | 12.3 µM | Activity [2]: Active |
| C=CS(=O)(=O)Nc1ccc(Oc2ccc(Cl)cc2F)c(-c2ccc3nnc(C)n3c2)c1 | Active | 2 µM | Active | 44.2 µM | – |
| Cc1nnc2ccc(-c3cc(NS(=O)(=O)c4cccs4)ccc3Oc3ccc(F)cc3F)cn12 | Active | 6.6 µM | Active | > 50 µM | Activity [2]: Active |
| Cc1nnc2ccc(-c3cc(NC(=O)CCCCCCC(=O)NO)ccc3Oc3ccc(F)cc3F)cn12 | – | > 50 µM | – | > 50 µM | – |
| Cc1nnc2ccc(-c3cc(NS(=O)(=O)c4ccc(Cl)cc4)ccc3Oc3ccc(F)cc3F)cn12 | Active | 17.7 µM | Active | > 50 µM | – |
| Cc1csc2c1C(c1ccc(Cl)cc1)=N[C@@H](CC(=O)OC(C)(C)C)c1nncn1-2 (racemic) | Active | – | Active | – | Activity [6]: Non-Toxic; inhibition [7]: Active; inhibition [8]: Active; Activity [9]: Non-Toxic; Activity [2]: Active; Activity [10]: Non-Toxic; inhibition [11]: Active |
| Cc1nnc2ccc(-c3cc(NS(=O)(=O)c4ccc([N+](=O)[O-])cc4)ccc3Oc3ccc(F)cc3F)cn12 | – | > 50 µM | – | > 50 µM | – |
| Cc1nnc2ccc(-c3cc(NS(=O)(=O)c4ccc(Br)cc4)ccc3Oc3ccc(F)cc3F)cn12 | – | > 50 µM | – | 43.9 µM | – |
| Cc1nnc2ccc(-c3cc(NS(=O)(=O)c4cccs4)ccc3Oc3ccc(Cl)cc3F)cn12 | Active | – | Active | – | Activity [2]: Active |
| Cc1nnc(C(=O)NC(C)(C)c2nc(C(=O)NCc3ccc(F)cc3)c(O)c(=O)n2C)o1 | – | – | – | – | Activity [12]: Active |
| COC(=O)CCCCCCC(=O)Nc1ccc(Oc2ccc(F)cc2F)c(-c2ccc3nnc(C)n3c2)c1 | – | > 50 µM | – | > 50 µM | – |
| CC(C)CN(C[C@@H](O)[C@H](Cc1ccccc1)NC(=O)O[C@H]1CO[C@H]2OCC[C@H]21)S(=O)(=O)c1ccc(N)cc1 | – | – | – | – | Activity [13]: Active |
| Cc1nnc2ccc(-c3cc(NS(=O)(=O)c4cccc(Br)c4)ccc3Oc3ccc(F)cc3F)cn12 | Active | 17.2 µM | Active | > 50 µM | – |
| Cc1nnc2ccc(-c3cc(NC(=O)CCCCCCC(=O)NO)ccc3Oc3ccc(Cl)cc3F)cn12 | – | 13.4 µM | – | 28.7 µM | – |
| Cc1nnc2ccc(-c3cc(NS(=O)(=O)c4ccc(C(F)(F)F)cc4)ccc3Oc3ccc(F)cc3F)cn12 | – | > 50 µM | – | > 50 µM | – |
| CCC(=O)Nc1ccc(Oc2ccc(F)cc2F)c(-c2ccc3nnc(C)n3c2)c1 | – | 17.8 µM | – | > 50 µM | – |
| Cc1nnc2ccc(-c3cc(NS(=O)(=O)c4ccccc4)ccc3Oc3ccc(F)cc3F)cn12 | Active | > 50 µM | Active | > 50 µM | – |
| Cc1nnc2ccc(-c3cc(NC(=O)C4CC4)ccc3Oc3ccc(F)cc3F)cn12 | – | > 50 µM | – | > 50 µM | – |
| Cc1nnc2ccc(-c3cc(NC(=O)C(C)(C)C)ccc3Oc3ccc(Cl)cc3F)cn12 | – | > 50 µM | – | 32.9 µM | – |
| CCCS(=O)(=O)Nc1ccc(Oc2ccc(F)cc2F)c(-c2ccc3nnc(C)n3c2)c1 | Active | 5.4 µM | Active | 44.7 µM | – |
| CCS(=O)(=O)Nc1ccc(Oc2ccc(F)cc2F)c(-c2cn(C)c(=O)c3[nH]ccc23)c1 | Active | – | Active | – | Activity [2]: Active |
| Cc1ccc(S(=O)(=O)Nc2ccc(Oc3ccc(F)cc3F)c(-c3ccc4nnc(C)n4c3)c2)cc1 | – | > 50 µM | – | > 50 µM | – |
| CCS(=O)(=O)Nc1ccc(Oc2ccc(Cl)cc2Cl)c(-c2ccc3nnc(C)n3c2)c1 | – | – | – | – | Activity [2]: Active |
| O=C1Nc2ccc(Cl)cc2[C@@](C#CC2CC2)(C(F)(F)F)O1 | – | – | – | – | Activity [14]: Active |
